Data on 2 sequences can be found in patent US11912793B2, “Polypeptide and application thereof in bone repair” (SICHUAN UNIVERSITY, priority 2022, dated 2024).

In one assay the test system is calvarial defects. In words: Calvarial defect implantation of polypeptide-modified GelMA, H&E and Goldner's trichrome staining. Type of assay: in vivo, SD male rats. The note with it: GelMA scaffold with peptide 0.1 mg/mL, 5 mm calvarial defect, 4 weeks post-implantation. How it is done:
• 2.1 GelMA Preparation: gelatin was fully dissolved in phosphate-buffered saline (PBS) at 60° C. with a concentration of 10% (w/v). […] Double PBS was added to the mixture to stop the reaction. The solution was dialyzed against distilled water using 12-14 kDa dialysis tubing for 1 week. The obtained GelMA solution was frozen at −20° C. overnight and lyophilized for 72 h to get sponge GelMA. • 2.2 Polypeptide modification: 2 g lyophilized GelMA was dissolved in 10 mL PBS containing 0.1% (w/v) photoinitiator LAP at 60° C. Then, either a control peptide or GS18 was added to achieve a final concentration of 0.1 mg/mL. The above mixture was injected into the mold (20 μL/hole) and exposed to ultraviolet irradiation (6.9 W/cm^2, 360-489 nm) for 2 min at room temperature. Once solidified, the materials were carefully detached from the mold and placed on ice for use. • 2.3 Result verification: photographs were captured to depict the morphological characteristics of the polypeptide-modified GelMA after it was separated from the mold.
• 3.1 Sample preparation: the GelMA scaffold was utilized to encapsulate either GS18 or control peptide at a concentration of 0.1 mg/mL, resulting in a total volume of 0.02 cm^3. • 3.2 Animal model: 12-week-old SD male rats (about 320±20 g each) were used. Each group contained 3 rats. Rats were anesthetized with 2% pentobarbital via abdominal injection. The rats were positioned in the prone position. An electric razor was utilized to remove fur from the cranial region. Following this, the surgical sites were thoroughly cleansed with iodophor for disinfection. To maintain a sterile condition, disposable towels were carefully placed over the surgical regions. Starting from the nasal bone, a longitudinal skin incision of 1.5-2.0 cm was made along the midline of the top of the head. The subcutaneous tissue was gently separated with the handle of a surgical knife. The periosteum was meticulously incised along the sagittal suture of the cranium and subsequently separated to fully expose the parietal bone, occipital bone, and part of the frontal bone. Bilateral full-thickness circular calvarial defects (diameter=5 mm) were generated using a trephine. Sterilized materials were implanted into the defect sites. The experimental group was implanted with GS18-modified GelMA, While the control group was implanted with control peptide-modified GelMA. Finally, the skin was reset, sutured, and disinfected. • 3.3 Tissue slices: after 4 weeks, the rats were sacrificed. […] The paraffin tissue slices were heated at 65° C., dewaxed, hydrated with xylene and gradient ethanol, and stained with H&E and Goldner's trichrome staining for histological evaluation.

The subject of assay [1] is osteogenesis-oriented BMSCs (pre-osteoblasts). In words: In vitro osteogenic differentiation, Von kossa staining. The class given is cell-based, C57BL/6 male mice. The conditions noted are these: 5 days OM pretreatment, then 14 days peptide-containing OM, compared with the control peptide. The procedure:
• 1.1 Cell culture: primary bone mesenchymal stem cells (BMSCs) extracted from the long bones of 3-week-old C57BL/6 male mice were selected, cultured at 37° C. in a humidified atmosphere with 5% CO2, and inoculated into a 24-well plate with 30000 cells/well. α-MEM supplemented with 5% FBS, 1% penicillin-streptomycin, […], 10 mM β-glycerophosphate, and 50 μg/mL L-ascorbic acid was used as the osteogenic medium (OM) for osteogenic induction. • 1.2 Cell induction: BMSCs were pretreated with OM for 5 days to achieve a determined osteogenic precursor cell state, followed by ongoing induction with peptide-containing OM for another 14 days. The experimental group used OM added with GS18, and the control group used OM added with the control peptide. GS18 was synthesized using a solid-phase polypeptide synthesis and was purified by HPLC (purity=96.59%). The amino acid sequence of the control peptide was shown as SEQ ID NO: 2, i.e. CKPLRLSKEEHPLK. The control peptide also adopted a solid-phase polypeptide synthesis method and used HPLC to purify products (purity=96.15%). […] The integrated density of calcium nodes (IntDen) and the percent of the calcified area to the total area (Area %) from five random areas were measured by Fiji. **p<0.01.

Another assay relates to Wnt/β-catenin pathway. In words: Immunofluorescence staining of active β-catenin and osteocalcin in calvarial defects. Type of assay: in vivo, SD male rats. The conditions noted are these: 4 weeks after implantation. How it is done: • 3.1 Sample preparation: the GelMA scaffold was utilized to encapsulate either GS18 or control peptide at a concentration of 0.1 mg/mL, resulting in a total volume of 0.02 cm^3. • 3.2 Animal model: 12-week-old SD male rats (about 320±20 g each) were used. Each group contained 3 rats. Rats were anesthetized with 2% pentobarbital via abdominal injection. The rats were positioned in the prone position. An electric razor was utilized to remove fur from the cranial region. Following this, the surgical sites were thoroughly cleansed with iodophor for disinfection. To maintain a sterile condition, disposable towels were carefully placed over the surgical regions. Starting from the nasal bone, a longitudinal skin incision of 1.5-2.0 cm was made along the midline of the top of the head. The subcutaneous tissue was gently separated with the handle of a surgical knife. […]
• 4.1 Antigen repair: the paraffin slices prepared in Embodiment 3.3 were heated at 65° C., dewaxed, hydrated with xylene and gradient ethanol, and immersed in the antigen repair buffer at 100° C. for 40 min. […] Subsequently, the sections were washed with PBS three times for 15 min each time and sealed by the anti-fluorescence quencher. • 4.3 Result verification: images of immunofluorescence staining were acquired using a confocal laser scanning microscope (CLSM, FV3000, Olympus, Japan).

Regarding “CKPLRLSKEEHPLK (The sequence is synthetized) [control peptide, control peptide made by solid-phase polypeptide synthesis, reference compound]”, in the assay with calvarial defects, the “Goldner's trichrome staining: cellular growth / cell infiltration in the defect (FIG. 4)” value is given as “conspicuous paucity of cellular growth within the central region of the defect” and the “H&E staining: cellular growth / cell recruitment in the defect (FIG. 3)” value is recorded as “noticeable lack of cellular growth in the central region of the defect”.
In the case of “GPGGDKCRCVFHWVCCYVS (GPGGDKCRCVFHWCCYVS; The sequence is synthetized) [GS18]”, in assay [1], the “formation of calcium deposits of pre-osteoblasts (FIG. 1B)” value is on record as “significantly increased” and the “maturation of calcium deposits of pre-osteoblasts (FIG. 1C)” value is “significantly increased”. In the assay on calvarial defects, the “H&E staining: cellular growth / cell recruitment in the defect (FIG. 3)” value was “capacity to attract and recruit cells into the scaffolds”; the “H&E staining: fiber mineralization in the defect (FIG. 3)” value is given as “high degree of fiber mineralization”. In the assay on Wnt/β-catenin pathway, the “expression of Ocn in the defect area (FIG. 5)” value was “robust and widespread”. Further, the “expression of active β-Catenin in newly formed tissues of the calvarial defects (FIG. 5)” value in the assay on Wnt/β-catenin pathway (compared to non-peptide-modified GelMA) is “significantly enhanced”.
